The source of these data is patent publication US6930185B2, “Melanin-concentrating hormone antagonist” (Takeda Chemical Industries, Ltd., priority 2000, dated 2005).

In turn, `Cc1ccc(-c2ccc(C(=O)Nc3ccc4nc(CN5CCCC5)ccc4c3)cn2)cc1` [Example 46, 6-(4-Methylphenyl)-N-[2-(1-pyrrolidinylmethyl)-6-quinolinyl]nicotinamide] gave a melting point of 207 to 209 °C.
The value for `O=C(Nc1ccc2nc(CN3CCCC3)ccc2c1)C1CCN(c2ccc(Cl)cc2)CC1` [Example 52, 1-(4-Chlorophenyl)-N-[2-(1-pyrrolidinylmethyl)-6-quinolinyl]-4-piperidinecarboxamide] was 204 to 206 °C.
The result for `O=C(Nc1ccc2nc(CN3CCCCC3)ccc2c1)c1ccc(-c2ccccc2)cc1` [Example 54, N-[2-(1-Piperidinylmethyl)-6-quinolinyl][1,1′-biphenyl]-4-carboxamide] reads 186 to 188 °C; that for `Cc1ccc(-c2ccc(C(=O)Nc3ccc4nc(CN5CCCCC5)ccc4c3)cc2)cc1` [Example 55, 4′-Methyl-N-[2-(1-piperidinylmethyl)-6-quinolinyl][1,1′-biphenyl]-4-carboxamide], 198 to 200 °C.
The value for `COc1ccc(-c2ccc(C(=O)Nc3ccc4nc(CN5CCCCC5)ccc4c3)cc2)cc1` [Example 56, 4′-Methoxy-N-[2-(1-piperidinylmethyl)-6-quinolinyl][1,1′-biphenyl]-4-carboxamide] was 192 to 194 °C; that for `O=C(Nc1ccc2nc(CN3CCCCC3)ccc2c1)c1ccc(-c2ccc(Cl)cc2)nc1` [Example 57, 6-(4-Chlorophenyl)-N-[2-(1-piperidinylmethyl)-6-quinolinyl]nicotinamide] was 215 to 218 °C (dec.); that for `Cc1ccc(-c2ccc(C(=O)Nc3ccc4nc(CN5CCCCC5)ccc4c3)cn2)cc1` [Example 58, 6-(4-Methylphenyl)-N-[2-(1-piperidinylmethyl)-6-quinolinyl]nicotinamide] was 206 to 207 °C (dec.).
On to `O=C(Nc1ccc2nc(CN3CCCCC3)ccc2c1)c1ccc(-c2ccc(F)cc2)nc1` [Example 59, 6-(4-Fluorophenyl)-N-[2-(1-piperidinylmethyl)-6-quinolinyl]nicotinamide], for which the melting point is 209 to 210 °C (dec.).
As to `COc1ccc(-c2ccc(C(=O)Nc3ccc4nc(CN5CCCCC5)ccc4c3)cn2)cc1` [Example 60, 6-(4-Methoxyphenyl)-N-[2-(1-piperidinylmethyl)-6-quinolinyl]nicotinamide], the melting point was 210 to 211 °C (dec.).
The value for `Cc1ccc(-c2ccc(C(=O)Nc3ccc4nc(CN5CCCC5)ccc4c3)cc2)cc1` [Example 61, 4′-Methyl-N-[2-(1-pyrrolidinylmethyl)-6-quinolinyl][1,1′-biphenyl]-4-carboxamide] was 192 to 193 °C; that for `COc1ccc(-c2ccc(C(=O)Nc3ccc4nc(CN5CCCC5)ccc4c3)cc2)cc1` [Example 62, 4′-Methoxy-N-[2-(1-pyrrolidinylmethyl)-6-quinolinyl][1,1′-biphenyl]-4-carboxamide] was 197 to 199 °C.
The value for `O=C(Nc1ccc2nc(CN3CCCCC3)ccc2c1)N1CCC(c2ccc(Cl)cc2)CC1` [Example 63, 4-(4-Chlorophenyl)-N-[2-(1-piperidinylmethyl)-6-quinolinyl]-1-piperidinecarboxamide] was 214 to 217 °C (dec.).
The value for `Cc1ccc(C2CCN(C(=O)Nc3ccc4nc(CN5CCCCC5)ccc4c3)CC2)cc1` [Example 64, 4-(4-Methylphenyl)-N-[2-(1-piperidinylmethyl)-6-quinolinyl]-1-piperidinecarboxamide] was 204 to 205 °C (dec.).
On to `O=C(Nc1ccc2nc(CN3CCCCC3)ccc2c1)N1CCC(c2ccc(F)cc2)CC1` [Example 65, 4-(4-Fluorophenyl)-N-[2-(1-piperidinylmethyl)-6-quinolinyl]-1-piperidinecarboxamide], for which the melting point was 203 to 204 °C (dec.).
The result for `O=C(Nc1ccc2nc(CN3CCCCC3)ccc2c1)c1ccc(-c2ccc(F)cc2F)nc1` [Example 69, 6-(2,4-Difluorophenyl)-N-[2-(1-piperidinylmethyl)-6-quinolinyl]nicotinamide] reads 182 to 183 °C; that for `CC1(C)CCCC(C)(C)N1Cc1ccc2cc(NC(=O)c3ccc(-c4ccc(Cl)cc4)nc3)ccc2n1` [Example 72, 6-(4-Chlorophenyl)-N-[2-[(2,2,6,6-tetramethyl-1-piperidinyl)methyl]-6-quinolinyl]nicotinamide], 258 to 259 °C.
For `Cc1ccc(-c2ccc(C(=O)Nc3ccc4nc(CN5C(C)(C)CCCC5(C)C)ccc4c3)cn2)cc1` [Example 73, 6-(4-Methylphenyl)-N-[2-[(2,2,6,6-tetramethyl-1-piperidinyl)methyl]-6-quinolinyl]nicotinamide], the melting point is 246 to 247 °C.
Compound `CC1(C)CCCC(C)(C)N1Cc1ccc2cc(NC(=O)N3CCC(c4ccc(Cl)cc4)CC3)ccc2n1` [Example 74, 4-(4-Chlorophenyl)-N-[2-[(2,2,6,6-tetramethyl-1-piperidinyl)methyl]-6-quinolinyl]-1-piperidinecarboxamide] had a melting point of 203 to 204 °C.
The value for `Cc1ccc(C2CCN(C(=O)Nc3ccc4nc(CN5C(C)(C)CCCC5(C)C)ccc4c3)CC2)cc1` [Example 75, 4-(4-Methylphenyl)-N-[2-[(2,2,6,6-tetramethyl-1-piperidinyl)methyl]-6-quinolinyl]-1-piperidinecarboxamide] was 200 to 202 °C; that for `C[C@@H]1CCC[C@H](C)N1Cc1ccc2cc(NC(=O)c3ccc(-c4ccc(F)cc4)cc3)ccc2n1` [Example 79, 4′-Fluoro-N-[2-[(cis-2,6-dimethyl-1-piperidinyl)methyl]-6-quinolinyl][1,1′-biphenyl]-4-carboxamide] was 187 to 188 °C.
The value for `C[C@@H]1CCC[C@H](C)N1Cc1ccc2cc(NC(=O)c3ccc(-c4ccccc4)cc3)ccc2n1` [Example 80, N-[2-[(cis-2,6-Dimethyl-1-piperidinyl)methyl]-6-quinolinyl][1,1′-biphenyl]-4-carboxamide] was 180 to 181 °C.
The value for `Cc1ccc(-c2ccc(C(=O)Nc3ccc4nc(CN5[C@H](C)CCC[C@@H]5C)ccc4c3)cc2)cc1` [Example 81, 4′-Methyl-N-[2-[(cis-2,6-dimethyl-1-piperidinyl)methyl]-6-quinolinyl][1,1′-biphenyl]-4-carboxamide] was 198 to 199 °C (dec.); that for `C[C@@H]1CCC[C@H](C)N1Cc1ccc2cc(NC(=O)c3ccc(-c4ccc(Cl)cc4)nc3)ccc2n1` [Example 83, 6-(4-Chlorophenyl)-N-[2-[(cis-2,6-dimethyl-1-piperidinyl)methyl]-6-quinolinyl]nicotinamide] was 217 to 219 °C (dec.); that for `Cc1ccc(C2CCN(C(=O)Nc3ccc4nc(CN5[C@H](C)CCC[C@@H]5C)ccc4c3)CC2)cc1` [Example 86, 4-(4-Methylphenyl)-N-[2-[(cis-2,6-dimethyl-1-piperidinyl)methyl]-6-quinolinyl]-1-piperidinecarboxamide] was 177 to 178 °C (dec.).
In the case of `CC1=NCCN1Cc1ccc2cc(NC(=O)c3ccc(-c4ccccc4)cc3)ccc2n1` [Example 93, N-[2-[(2-Methyl-4,5-dihydro-1H-imidazol-1-yl)methyl]-6-quinolinyl][1,1′-biphenyl]-4-carboxamide], the melting point was 212 to 220 °C (dec.).
